Reference: ChEMBL document CHEMBL5149990, “New Protocol-Guided Exploitation of a Lysosomal Sulfatase Inhibitor to Suppress Cell Growth in Glioblastoma Multiforme” (J Med Chem, 2021)
pIC50: −log10 of the molar value. Activity calls are given as the source filed them. No cut-off for these calls is given here.

Tests used:
[1] = Inhibition of lysosome sulfatase (unknown origin) assessed as reduction in fluorescence intensity using 2-(2-Morpholinoethyl)-6-(((2S,3R,4S,5S,6R)-3,4,5-trihydroxy-6-(hydroxymethyl)tetrahydro-2H-pyran-2-yl)oxy)-1H-benzo[de]-isoquinoline-1,3(2H)-dione as substrate incubated for 60 mins by fluorescence based analysis; assay type: subcellular, Homo sapiens
T98G [2] = assay: Binding affinity to sulfatase in human T98G cells assessed as reduction in fluorescence intensity at 125 uM in presence of 2-(2-Morpholinoethyl)-6-(((2S,3R,4S,5S,6R)-3,4,5-trihydroxy-6-(hydroxymethyl)tetrahydro-2H-pyran-2-yl)oxy)-1H-benzo[de]-isoquinoline-1,3(2H)-dione by confocal fluorescence microscopic analysis; assay type: cell-based
T98G [3] = assay: Cytotoxicity against human T98G cells assessed as reduction in cell viability at 3.5 to 350 uM incubated for 48 hrs by MTT assay relative to control; assay type: toxicity, cell-based; conditions: dose 3.5-350 µM
Homo sapiens [4] = species on record: Homo sapiens; assay: Binding affinity to sulfatase in human liver S9 fraction; assay type: subcellular
[5] = Drug localization in lysosome of human T98G cells by Lyso-Tracker Red based confocal laser scanning microscopy; assay type: ADME, cell-based
Homo sapiens [6] = species on record: Homo sapiens; assay: Binding affinity to lysosome sulfatase (unknown origin) assessed as Km; assay type: subcellular
T98G [7] = assay: Binding affinity to sulfatase in human T98G cells assessed as increase in fluorescence intensity at 40 uM by confocal fluorescence microscopic analysis; assay type: cell-based
T98G [8] = assay: Cytotoxicity against human T98G cells assessed as reduction in cell viability incubated for 4 hrs by MTT assay; assay type: toxicity, cell-based
Homo sapiens [9] = species on record: Homo sapiens; assay: Binding affinity to lysosome sulfatase (unknown origin) assessed as Vmax; assay type: subcellular

| SMILES | pIC50 [1] | Activity (T98G [2]) | Activity (T98G [3]) | Activity (Homo sapiens [4]) | Drug uptake [5] | Km (Homo sapiens [6]) | Activity (T98G [7]) | Activity (T98G [8]) | Vmax (Homo sapiens [9]) |
| --- | --- | --- | --- | --- | --- | --- | --- | --- | --- |
| CC1(C)[C@H](C(=O)O)N2C(=O)C[C@H]2S1(=O)=O [SULBACTAM] | 5.46 | Active | 34% | – | – | – | – | – | – |
| O=C1c2cccc3c(O[C@@H]4O[C@H](CO)[C@@H](O)[C@H](O)[C@H]4O)ccc(c23)C(=O)N1CCN1CCOCC1 | – | – | – | Active | Active | 21.6 µM | Active | Non-Toxic | 70.9 nmol/min/mg |
